Source: patent US20220226342A1, “COMPOSITIONS AND METHODS OF TREATING LIVER CANCERS” (The Johns Hopkins University, priority 2019, published 2022)

Columns and labels:
HCC 67-1 = test: IC50 in PDO line; assay type: cell-based; conditions: Homo sapiens
Description: (§1) The inventors tested omacetaxine at decreasing concentrations (10 μM, 1 μM, 100 nM, 10 nM and 1 nM) to calculate the half-maximal inhibitory concentration (IC50). […] The IC50 value for each of the 40 HCC PDO lines can be found in Table 2.

HCC 26-5 = test: IC50 in PDO line; assay type: cell-based; conditions: Homo sapiens
Description: as §1

HCC 38 = test: IC50 in PDO line; assay type: cell-based; conditions: Homo sapiens
Description: as §1

HCC 26-8 = test: IC50 in PDO line; assay type: cell-based; conditions: Homo sapiens
Description: as §1

HCC 50 = test: IC50 in PDO line; assay type: cell-based; conditions: Homo sapiens
Description: as §1

40 HCC PDO lines = test: omacetaxine dose response, IC50 across all 40 HCC PDO lines; assay type: cell-based; conditions: Homo sapiens; average of 40 HCC PDO lines; read-out: calculated average IC50 across all 40 HCC PDO lines
Description: FIG. 2A-2E. 10 μM drug screening and IC50 calculation across 40 PDOs from 20 HCC patients. (2A). 10 μM drug screening of omacetaxine and sorafenib, regorafenib, lenvatinib and cabozantinib on 40 PDOs derived from 20 HCC patients. X axis—the 40 PDO lines, Y axis—Cell viability. (2B). IC50 curve of 40 PDO lines, x-axis—omacetaxine dose, Y axis—Relative cell viability. (2C). […] (2D). IC50 distribution of 40 HCC PDOs. X axis—PDO lines, Y axis—IC50 number of omacetaxine for each PDO.

6 HCC PDO lines = test: cell cycle analysis; assay type: cell-based, human
Description: FIG. 6A-6B. Cell cycle analysis of omacetaxine treated HCC PDOs. […] (6A) The histogram of cell cycle distributions.
The effects on proliferation were assessed to elucidate the omacetaxine mechanisms of action. […] To further understand the effects of omacetaxine on cancer cell proliferation and cell cycle, the inventors performed FACS analysis of Ki67 protein. Ki-67 is a nuclear protein expressed in proliferating cells (in all phases of the cell cycle except G0)^22,23. Furthermore, the higher expression of Ki67 has been linked to poorer disease free survival and overall survival in HCC^24. […] As caspase 3 is a key molecule in apoptosis, the inventors measured its activated (cleaved) fragment.

26-3 PDX = test: Cleaved Caspase 3 staining of PDX tumor frozen sections; assay type: in vivo, NSG mice; conditions: omacetaxine treated HCC PDX tumors vs matched controls
Text: FIG. 8A-8G. Omacetaxine inhibits tumor cell proliferation and increases apoptosis and suppressed HCC oncoprotein expression in vivo. (8A-8D) Immunofluorescent staining of Ki67 and cleaved caspase 3 expression in 26-3 PDX model. 8A-8B show the IF staining pictures, 8C-8D show the relative Ki67 or cleaved caspase 3 positive cell number in omacetaxine treated mice compared with control treatment groups. (8E-8G) Omacetaxine suppressed HCC oncoprotein: c-Myc, Beta-catenin and MET protein expression in 50 HCC PDX treated with Omacetaxine vs control.
To verify the mechanism of omacetaxine target HCC mechanism in vivo, omacetaxine treated HCC PDX tumors, as well as matched controls, were harvested, and frozen section slides were made. […] The difference in apoptosis as well as proliferation was statistically significant (FIGS. 8C and 8D).

COC(=O)C[C@](O)(CCCC(C)(C)O)C(=O)O[C@@H]1C(OC)=C[C@]23CCCN2CCc2cc4c(cc2[C@H]13)OCO4 [omacetaxine, omacetaxine mepusuccinate]
IC50 (HCC 67-1): 0.00403 µM
IC50 (HCC 26-5): 0.0667 µM
IC50 (HCC 38): 0.0185 µM
IC50 (HCC 26-8): 0.0378 µM
IC50 (HCC 50): 0.0298 µM
IC50 (40 HCC PDO lines): 0.0352 µM
cell cycle arrest (6 HCC PDO lines; 6 HCC PDOs, dose-dependent): induces G0/G1 arrest
G0/G1 fraction with rising omacetaxine dose (6 HCC PDO lines; all 6 HCC PDOs): around 90%
apoptosis as quantified by Cleaved Caspase 3 staining (26-3 PDX): increased
